IC50 and Ki data for eleven compounds are collected here from patent US8637511B2, “Aminopyrimidines useful as kinase inhibitors” (Vertex Pharmaceuticals Incorporated, priority 2005, dated 2014).

Like-named read-outs stand apart in the source and are kept apart here.

Assay [1] concerns Colo205 cells. In words: Analysis of cell proliferation and viability. Format: cell-based. As to conditions: Homo sapiens, read-out: IC50 value.
Assay [2] deals with T1, human Itk kinase (Homo sapiens, UniProt Q08881).
T1 sequence (Q08881 1-620): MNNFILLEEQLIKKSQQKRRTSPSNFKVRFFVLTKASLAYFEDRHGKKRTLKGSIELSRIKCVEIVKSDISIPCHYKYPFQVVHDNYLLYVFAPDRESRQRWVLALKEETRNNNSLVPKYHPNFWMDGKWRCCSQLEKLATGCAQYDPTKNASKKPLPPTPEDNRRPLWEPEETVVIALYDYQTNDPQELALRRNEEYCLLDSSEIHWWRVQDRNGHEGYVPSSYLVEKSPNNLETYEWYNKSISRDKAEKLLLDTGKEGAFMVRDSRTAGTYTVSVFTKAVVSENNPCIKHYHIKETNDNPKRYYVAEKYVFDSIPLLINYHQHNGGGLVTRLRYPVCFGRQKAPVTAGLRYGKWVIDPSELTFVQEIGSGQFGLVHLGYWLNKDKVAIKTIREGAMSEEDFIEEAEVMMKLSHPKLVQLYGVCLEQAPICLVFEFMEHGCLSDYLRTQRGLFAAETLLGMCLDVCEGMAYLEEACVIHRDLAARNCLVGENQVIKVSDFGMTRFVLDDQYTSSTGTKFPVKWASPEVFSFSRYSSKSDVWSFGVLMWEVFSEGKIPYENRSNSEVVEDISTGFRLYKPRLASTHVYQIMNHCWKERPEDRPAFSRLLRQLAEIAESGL
In words: Itk inhibition assay: radioactivity-based assay. Format: biochemical. To be noted: Ki(app). How it is done:
The compounds of the present invention were evaluated as inhibitors of human Itk kinase using a radioactivity-based assay. These compounds can also be evaluated using a spectrophotometric or alphascreen assay.
Assays were carried out in a mixture of 20 mM MOPS (pH 7.0), 10 mM MgCl2, 0.1% BSA and 1 mM DTT. Final substrate concentrations in the assay were 7.5 μM [γ-^33P]ATP (400 μCi ^33P ATP/μmol ATP, Amersham Pharmacia Biotech/Sigma Chemicals) and 3 μM peptide (SAM68 protein Δ332-443). Assays were carried out at 25° C. in the presence of 50 nM Itk. An assay stock buffer solution was prepared containing all of the reagents listed above, with the exception of ATP and the test compound of interest. 50 μL of the stock solution was placed in a 96 well plate followed by addition of 2 μL of DMSO stock containing serial dilutions of the test compound (typically starting from a final concentration of 50 μM with 2-fold serial dilutions) in duplicate (final DMSO concentration 2%). The plate was pre-incubated for 10 minutes at 25° C. and the reaction initiated by addition of 50 μL [γ-^33P]ATP (final concentration 7.5 μM).
The reaction was stopped after 10 minutes by the addition of 100 μL 0.2M phosphoric acid+0.01% TWEEN 20. A multiscreen phosphocellulose filter 96-well plate (Millipore, Cat no. MAPHNOB50) was pretreated with 100 μL 0.2M phosphoric acid+0.01% TWEEN 20 prior to the addition of 170 μL of the stopped assay mixture. The plate was washed with 4×200 μL 0.2M phosphoric acid+0.01% TWEEN 20. After drying, 30 μL Optiphase ‘SuperMix’ liquid scintillation cocktail (Perkin Elmer) was added to the well prior to scintillation counting (1450 Microbeta Liquid Scintillation Counter, Wallac).
Ki(app) data were calculated from non-linear regression analysis of the initial rate data using the Prism software package (GraphPad Prism version 3.0cx for Macintosh, GraphPad Software, San Diego Calif., USA).

Assay [3] deals with T2, JAK3 (Homo sapiens, UniProt P52333).
T2 sequence (P52333 1-1124): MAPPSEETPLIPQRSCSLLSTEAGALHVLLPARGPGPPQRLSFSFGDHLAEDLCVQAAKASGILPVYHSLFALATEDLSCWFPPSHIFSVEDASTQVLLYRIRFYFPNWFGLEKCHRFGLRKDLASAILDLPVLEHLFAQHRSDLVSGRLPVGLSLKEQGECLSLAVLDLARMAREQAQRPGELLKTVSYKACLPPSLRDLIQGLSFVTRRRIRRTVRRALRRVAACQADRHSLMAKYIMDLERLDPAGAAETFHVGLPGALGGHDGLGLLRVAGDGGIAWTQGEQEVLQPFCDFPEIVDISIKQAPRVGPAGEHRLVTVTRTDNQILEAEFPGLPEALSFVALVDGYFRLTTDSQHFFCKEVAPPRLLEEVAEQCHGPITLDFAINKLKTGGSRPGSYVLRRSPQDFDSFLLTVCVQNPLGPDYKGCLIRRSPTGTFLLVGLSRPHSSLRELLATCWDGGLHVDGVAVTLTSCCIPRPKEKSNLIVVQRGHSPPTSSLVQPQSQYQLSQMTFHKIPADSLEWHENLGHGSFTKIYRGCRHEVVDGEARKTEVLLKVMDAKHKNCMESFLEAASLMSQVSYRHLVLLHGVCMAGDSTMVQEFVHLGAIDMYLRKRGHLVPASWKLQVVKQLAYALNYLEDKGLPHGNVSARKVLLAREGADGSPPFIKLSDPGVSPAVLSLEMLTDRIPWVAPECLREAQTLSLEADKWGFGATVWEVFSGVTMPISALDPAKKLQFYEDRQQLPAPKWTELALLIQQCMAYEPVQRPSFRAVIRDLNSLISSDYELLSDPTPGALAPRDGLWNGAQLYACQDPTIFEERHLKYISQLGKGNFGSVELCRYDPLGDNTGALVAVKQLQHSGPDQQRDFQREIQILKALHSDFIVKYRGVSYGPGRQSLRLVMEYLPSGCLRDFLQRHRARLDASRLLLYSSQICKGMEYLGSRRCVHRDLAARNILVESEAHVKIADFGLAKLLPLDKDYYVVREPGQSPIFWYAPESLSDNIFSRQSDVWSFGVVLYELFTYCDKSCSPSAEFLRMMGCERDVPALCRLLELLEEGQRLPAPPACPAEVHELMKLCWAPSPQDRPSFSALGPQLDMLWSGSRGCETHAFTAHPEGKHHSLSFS
The experiment in a line: biochemical.
Description: Reactions were carried out in a kinase buffer containing 100 mM HEPES (pH 7.4), 1 mM DTT, 10 mM MgCl2, 25 mM NaCl, and 0.01% BSA. Substrate concentrations in the assay were 5 μM ATP (200 uCi/μmole ATP) and 1 μM poly(Glu)4Tyr. Reactions were carried out at 25° C. and 1 nM JAK3.
To each well of a 96 well polycarbonate plate was added 1.5 μl of a candidate JAK3 inhibitor along with 50 μl of kinase buffer containing 2 μM poly(Glu)4Tyr and 10 μM ATP. This was then mixed and 50 μl of kinase buffer containing 2 nM JAK3 enzyme was added to start the reaction. After 20 minutes at room temperature (25 C), the reaction was stopped with 50 μl of 20% trichloroacetic acid (TCA) that also contained 0.4 mM ATP. The entire contents of each well were then transferred to a 96 well glass fiber filter plate using a TomTek Cell Harvester. After washing, 60 μl of scintillation fluid was added and ^33P incorporation detected on a Perkin Elmer TopCount.

Assay [4] deals with T3, Aurora-2 (Aurora A) (Homo sapiens, UniProt O14965).
T3 sequence (O14965 1-403): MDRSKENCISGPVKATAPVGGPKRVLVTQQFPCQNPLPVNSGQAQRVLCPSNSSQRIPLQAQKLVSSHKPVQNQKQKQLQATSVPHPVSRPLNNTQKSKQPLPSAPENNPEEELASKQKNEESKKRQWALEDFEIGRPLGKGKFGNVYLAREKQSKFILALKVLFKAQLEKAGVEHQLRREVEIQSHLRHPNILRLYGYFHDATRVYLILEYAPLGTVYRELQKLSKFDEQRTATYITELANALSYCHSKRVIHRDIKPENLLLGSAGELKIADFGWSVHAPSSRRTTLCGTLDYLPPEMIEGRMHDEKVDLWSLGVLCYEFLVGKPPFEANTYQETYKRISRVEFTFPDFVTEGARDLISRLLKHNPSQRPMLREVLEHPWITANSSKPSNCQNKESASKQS
In words: Aurora-2 (Aurora A) inhibition assay, coupled enzyme. Format: biochemical. As to conditions: read-out: Aurora A kinase Ki value. An outline of the steps:
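Coupled pyruvate kinase/lactate dehydrogenase assay with NADH in pH 7.5 Hepes containing MgCl2, DTT and NaCl, using 40 nM Aurora-2 at 30 °C. After a 10 min preincubation, enzyme addition started the reaction, and initial rates were taken over 10 min. IC50 and Ki came from non-linear regression.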

Assay [5] deals with Aurora-1 (Aurora B) (Homo sapiens, UniProt Q96GD4). In words: Aurora-1 (Aurora B) inhibition assay (radiometric). Format: biochemical. As to conditions: read-out: Aurora B kinase Ki value. Summed up:
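Radiometric ^33P incorporation into peptide substrate, with [γ-^33P]-ATP at 800 μM final, in 25 mM HEPES pH 7.5, 10 mM MgCl2, 0.1% BSA, 10% glycerol. Compound preincubated with enzyme for 10 min at 25° C, reaction run 3 h, then captured on phosphocellulose. Ki from initial rates by non-linear regression after background subtraction.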

Where [6] appears, read: COLO 205, Colo205 cells, incubated for 96 hours.

Aurora-1 (Aurora B), sequence (Q96GD4 whole entry): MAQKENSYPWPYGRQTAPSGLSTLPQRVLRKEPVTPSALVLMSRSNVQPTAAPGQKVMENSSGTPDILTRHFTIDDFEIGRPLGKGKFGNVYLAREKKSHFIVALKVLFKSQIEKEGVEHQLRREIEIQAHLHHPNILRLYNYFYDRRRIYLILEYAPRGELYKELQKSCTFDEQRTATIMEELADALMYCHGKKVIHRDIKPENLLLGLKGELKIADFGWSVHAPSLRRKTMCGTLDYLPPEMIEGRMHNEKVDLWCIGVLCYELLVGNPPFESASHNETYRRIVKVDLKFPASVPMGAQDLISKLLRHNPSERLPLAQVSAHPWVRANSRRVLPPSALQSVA

Usually IC50 stands for the concentration at which inhibition is half-maximal. In the case of `CCc1cccc(C(=O)Nc2ccc(Sc3nc(Nc4cc(C)[nH]n4)cc(N4CCC4)n3)cc2)c1Cl` [Compound 164], the half-inhibitory concentration (IC50) in assay [1] (setting [6]) is at most 50 nM. Moreover, the Ki was 100 to 1000 nM in assay [2] and at most 10 nM in assay [3].
`Cc1cc(Nc2cc(N3CCC3)nc(Sc3ccc(NC(=O)c4cccc(F)c4F)cc3)n2)n[nH]1` [Compound 33]: the Ki in assay [4] lay within 1 to 5 nM; in assay [2], 100 to 1000 nM. Besides, in assay [1] (COLO 205, 96 h), the half-inhibitory concentration (IC50) lay within 50 to 1000 nM.
On to `O=C(Nc1ccc(Sc2nc(Nc3cc(C4CC4)[nH]n3)cc(N3CCC3)n2)cc1)c1ccccc1Cl` [Compound 65], for which, in assay [1] (setting [6]), the IC50 was in the range of 50 to 1000 nM. The figures for the Ki in assay [2] and in assay [3] (read-out: JAK3 Ki value) were at most 100 nM and at most 10 nM, respectively.
The like results for `Cc1cc(Nc2cc(N3CCC3)nc(Sc3ccc(NC(=O)c4cccc(C)c4Cl)cc3)n2)n[nH]1` [Compound 161] were, in that order, 50 to 1000 nM, 100 to 1000 nM and at most 10 nM.
`COc1ccccc1C(=O)Nc1ccc(Sc2nc(Nc3cc(C)[nH]n3)cc(N3CCC3)n2)cc1` [Compound 32]: the half-maximal inhibitory concentration (IC50) in assay [1] (COLO 205, 96 h) is 50 to 1000 nM. In addition, the Ki in assay [2] was in the range of 100 to 1000 nM.
For `Cc1cc(Nc2cc(N3CCC3)nc(Sc3ccc(NC(=O)c4cccc(Cl)c4)cc3)n2)n[nH]1` [Compound 53], in assay [1] (setting [6]), the half-maximal inhibitory concentration (IC50) lay within 50 to 1000 nM. The Ki in assay [2] lay in the range of 100 to 1000 nM.
On to `Cc1cc(Nc2cc(N3CCC3)nc(Sc3ccc(NC(=O)c4ccccc4C(F)(F)F)cc3)n2)[nH]n1` [Compound 56], for which the 50% inhibitory concentration (IC50) in assay [1] (COLO 205, Colo205 cells, incubated for 72 hours) is 30 to 200 nM; in assay [1] (setting [6]) it was at most 50 nM. The Ki in assay [2] lay in the range of 100 to 1000 nM.
On to `O=C(Nc1ccc(Sc2nc(Nc3cc(CO)[nH]n3)cc(N3CCC3)n2)cc1)c1ccccc1Cl` [Compound 75], for which the Ki in assay [4] fell in the range of 5 to 200 nM; in assay [2], 1000 to 2000 nM; in assay [5], 50 to 2000 nM.
As for `Cc1cc(Nc2cc(N3CCC3)nc(Sc3ccc(NC(=O)c4c(F)cccc4F)cc3)n2)n[nH]1` [Compound 7], the IC50 in assay [1] (setting [6]) is at most 50 nM. Also, in assay [2], the Ki is at most 100 nM.
Consider `Cc1cc(Nc2cc(N3CCC3)nc(Sc3ccc(NC(=O)c4ccccc4F)cc3)n2)n[nH]1` [Compound 9], for which the IC50 in assay [1] (setting [6]) lay in the range of 50 to 1000 nM. The figures for the Ki in assay [2] and in assay [5] were 100 to 1000 nM and at most 10 nM, respectively.
For the compound `Cc1cc(Nc2cc(N3CCC3)nc(Sc3ccc(NC(=O)c4c(Cl)cccc4Cl)cc3)n2)n[nH]1` [Compound 46], the concentration for half-maximal inhibition (IC50) in assay [1] (COLO 205, 96 h) fell in the range of 50 to 1000 nM. In addition, in assay [2], the Ki was at most 100 nM.
